# Results: US5658880A, “Sialic acid/fucose based medicaments” (Glycomed Incorporated, priority 1994, dated 1997)
# Tests used:
# human neutrophils = test: Reperfusion injury assay: complement-induced human neutrophil adhesion in rabbit isolated heart; parameters: species or system human neutrophils; New Zealand White rabbit heart; details: 4% normal human plasma, 0.1 mg/ml (0.001, 0.01 and 0.1 mg/ml tested), read-out: % Neutrophil Inhibition (neutrophil accumulation)
# Source text: Experiments were done to determine the effectiveness of compound 7 in decreasing adhesion of human neutrophils in the rabbit isolated heart. Addition of the human plasma to the rabbit isolated heart results in activation of the complement components found within the plasma, which in turn promotes an increase in the neutrophil accumulation. This model is used to determine the effect of sLe^x analogues on inhibiting complement-induced neutrophil adhesion. Hearts from New Zealand White rabbits were excised, mounted on a modified Langendorff apparatus and perfused with Krebs-Heinseleit buffer. Cardiac functional parameters were monitored upon a Grass Model 79D polygraph machine. 4% normal human plasma (NHP) was added to the recirculating buffer. Ten minutes after the addition of the plasma, 13b (0.1 mg/ml) was added to the perfusate. After 15 minutes of perfusion with the plasma, 51-chromium labelled human neutrophils (1×10^5 /ml) were added to the perfusate and allowed to recirculate for an additional 15 minutes. At the end of this time the hearts were washed with fresh buffer to remove non-specifically bound neutrophils, dried and counted in a well type gamma-counter. A concentration response curve was generated using concentrations of 0.001, 0.01 and 0.1 mg/ml. […] Table 3 lists the results, expressed as the percent inhibition of neutrophil accumulation.
# P-selectin = test: Flow cytometric assay: inhibition of P-selectin-IgG binding to HL-60 cells; type: cell-based, human; parameters: unit of the concentration uncertain
# Experimental: The interaction of P-selectin and its cellular ligand was studied using a flow cytometric assay (Erbe, D. V. et al., J. Cell Biol. (1993) 120:1227). HL60 cells (maintained in high glucose DME plus 10% Hyclone FBS) were used in this assay. Before staining with P-selectin-IgG the cells were preincubated in Dulbecco's PBS/1% BSA/0.1% sodium azide/1% normal rabbit serum (staining medium) for 30-60 mins on ice. After this initial incubation, 1 μg of P-selectin-IgG was added to 100 μl aliquots of 10^6 cells and incubated for 30-60 mins on ice. The cells were when washed with staining medium and resuspended in 100 μl of staining medium to which was added 2 μl of a phycoerythrin-conjugated F(ab')^2 goat anti-human IgG (Fc specific). The cells were incubated for 15-30 mins on ice, washed twice with staining medium, and resuspended in 0.5 ml of staining medium before flow cytometric analysis on a FACScan (Becton Dickinson & Co., Mountain View, Calif.). To determine that the staining was an interaction of P-selectin with its ligand, the staining was also done in the presence of 10 mM EGTA. To determine the protease sensitivity and the requirement for sialic acid of this interaction, HL-60 cells in D-PBS and 1% BSA were incubated with either trypsin or Arthrobacter or Clostridium sialidases at 37° C. before resuspending in staining medium. To examine the ability of various carbohydrates to inhibit staining, 50 μg/ml fucoidin (Sigma Immunochemicals, St. Louis, Mo.), 50 μg/ml dextran sulfate (Pharmacia Fine Chemicals, Piscataway, N.J.), 10 mg/ml mannose-1-phosphate (Sigma Immunochemicals), or 10 mg/ml mannose-6-phosphate (Sigma Immunochemicals) was added to cells immediately before the addition of the P-selectin chimera. Each carbohydrate was then present until the cells were washed before the addition of the second stage antibody. A potential complication of this FACS assay arose from the use of selectin-IgG chimeras to stain cells which bear human IgG Fc receptors (FcγR; Fanger, M. W., et al., Immunol. Today (1989) 10:92). Adding rabbit IgG (in the form of normal rabbit serum) to the assay medium blocked this binding in most cases.
compound,measurement,setting,value
"CC(=O)NC1C(O)CC(OCCCCCCOC2OC(C)C(O)C(O)C2O)(C(=O)O)OC1C(O)C(O)CO [Compound 7, 1-O-α-Neu5Ac-(6-O-α-L-Fucopyranosyl)-Hexane]",inhibition at 100 µg/mL,human neutrophils,30%
same,Inhibition (%) of P-selectin-IgG binding to HL-60 cells,P-selectin; 10 (unit uncertain),60%
same,Inhibition (%) of P-selectin-IgG binding to HL-60 cells,P-selectin; 50 (unit uncertain),80%
same,Inhibition (%) of P-selectin-IgG binding to HL-60 cells,P-selectin; 100 (unit uncertain),80%
